Measured values published in ChEMBL document CHEMBL1133965, “Total synthesis of Calebin-A, preparation of its analogues, and their neuronal cell protectivity against beta-amyloid insult” (2001).
Converted amounts (≈) assume the structure as drawn.

Legend:
IMR-32 [1] = assay: (§1) Evaluated for neuronal cell protectivity against beta-amyloid (25,35) insult towards IMR-32 human neuroblastoma cell; No protection; assay type: functional, cell-based
PC-12 [2] = assay: Evaluated for neuronal cell protectivity against beta-amyloid (25,35) insult towards PC12 rat pheochromocytoma cell; No protection; assay type: functional
IMR-32 [3] = assay: as §1; assay type: functional
PC-12 [4] = assay: Evaluated for neuronal cell protectivity against beta-amyloid (25,35) insult towards PC12 rat pheochromocytoma cell
PC-12 [5] = assay: Evaluated for neuronal cell protectivity against beta-amyloid (25,35) insult towards PC12 rat pheochromocytoma cell; assay type: functional; settings: read-out: ED50 (the source's name)
IMR-32 [6] = assay: Evaluated for neuronal cell protectivity against beta-amyloid (25,35) insult towards IMR-32 human neuroblastoma cell; assay type: functional; settings: read-out: ED50 (the source's name)

Compound | ED50 (PC-12 [2]) | ED50 (IMR-32 [3]) | also measured
COc1cc(/C=C/C(=O)COC(=O)/C=C/c2ccc(OC(C)=O)c(OC(C)=O)c2)ccc1O | No protection |  | ED50 (IMR-32 [1]): No protection
COc1cc(/C=C/C(=O)COC(=O)/C=C/c2cccc(OC(C)=O)c2)ccc1O | No protection | No protection | 
COc1cccc(/C=C/C(=O)OCC(=O)/C=C/c2ccc(O)c(OC)c2)c1 | No protection | No protection | 
COc1cc(/C=C/C(=O)COC(=O)/C=C/c2ccc(OC(C)=O)cc2)ccc1O | No protection | No protection | 
COc1cc(/C=C/C(=O)COC(=O)/C=C/c2ccc(O)cc2)ccc1O |  |  | EC50 (IMR-32 [3]; read-out: ED50 (the source's name)): 1.2 µg/mL (≈ 3.39 µM); ED50 (PC-12 [4]): 0.7 µg/mL (≈ 1.98 µM)
COc1cc(/C=C/C(=O)COC(=O)/C=C/c2ccc(C)cc2)ccc1O | No protection | No protection | 
COc1cc(/C=C/C(=O)COC(=O)/C=C/c2ccc(Br)cc2)ccc1O | No protection | No protection | 
COc1ccc(/C=C/C(=O)OCC(=O)/C=C/c2ccc(O)c(OC)c2)cc1 | No protection | No protection | 
COc1cc(/C=C/C(=O)COC(=O)/C=C/c2ccc(O)c(OC)c2)ccc1O [CALEBI A] |  |  | EC50 (PC-12 [5]): 1 µg/mL (≈ 2.6 µM); EC50 (IMR-32 [6]): 1.4 µg/mL (≈ 3.64 µM)
COc1cc(/C=C/C(=O)COC(=O)/C=C/c2ccc(Cl)cc2)ccc1O | No protection | No protection | 
COc1cc(/C=C/C(=O)COC(=O)/C=C/c2ccc3c(c2)OCO3)ccc1O | No protection | No protection | 
COc1cc(/C=C/C(=O)COC(=O)/C=C/c2ccc(O)c(O)c2)ccc1O |  |  | EC50 (PC-12 [5]): 7.3 µg/mL (≈ 19.7 µM); EC50 (IMR-32 [6]): 7.9 µg/mL (≈ 21.3 µM)
COc1cc(/C=C/C(=O)COC(=O)/C=C/c2cccc(O)c2)ccc1O |  |  | EC50 (PC-12 [5]): 13.2 µg/mL (≈ 37.3 µM); EC50 (IMR-32 [6]): 15.8 µg/mL (≈ 44.6 µM)
VITAMIN E | No protection | No protection | 
COc1cc(/C=C/C(=O)CC(=O)/C=C/c2ccc(O)c(OC)c2)ccc1O [CURCUMIN] |  |  | EC50 (PC-12 [5]): 7.1 µg/mL (≈ 19.3 µM); EC50 (IMR-32 [6]): 7.4 µg/mL (≈ 20.1 µM)
COc1cc(/C=C/C(=O)COC(=O)/C=C/c2ccccc2)ccc1O | No protection | No protection | 
